Test results as given in ChEMBL document CHEMBL1201862, “PubChem BioAssay data set” (2004).
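Results reflect a 48-hour exposure of cells in 96-well plates to compound at five concentrations. The concentration for 50% growth inhibition is given as GI50.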 The source made the active and inactive calls. Rule as the data show it: active = GI50 up to about 1.1 µM and inactive = higher.

Key:
Assay in all cases: NCI anticancer screen, dose series, 48 h
[1] = system: CCRF-CEM
[2] = system: OVCAR-8
[3] = system: OVCAR-5
[4] = system: IGROV-1
[5] = system: OVCAR-3
[6] = system: BT-549
[7] = system: 786-0
[8] = system: CAKI-1
[9] = system: SW-620
[10] = system: HL-60
[11] = system: SK-MEL-2
[12] = system: SF-268
[13] = system: PC-3
[14] = system: A498
[15] = system: MDA-MB-435
[16] = system: UACC-257
[17] = system: M14
[18] = system: NCI-H460
[19] = system: UO-31
[20] = system: Malme-3M
[21] = system: SNB-19
[22] = system: MOLT-4
[23] = system: SN12C
[24] = system: LOX IMVI
[25] = system: HCT-116
[26] = system: RXF 393
[27] = system: U-251
[28] = system: TK-10
[29] = system: EKVX
[30] = system: UACC-62
[31] = system: DU-145
[32] = system: NCI-H522
[33] = system: RPMI-8226
[34] = system: HT-29
[35] = system: ACHN
[36] = system: COLO 205
[37] = system: HOP-92
[38] = system: HOP-62
[39] = system: A549
[40] = system: HCT-15
[41] = system: Hs-578T
[42] = system: MDA-MB-231
[43] = system: HCC 2998
[44] = system: OVCAR-4
[45] = system: SK-OV-3
[46] = system: KM12
[47] = system: SK-MEL-5
[48] = system: NCI-H23
[49] = system: NCI/ADR-RES
[50] = system: SNB-75
[51] = system: SK-MEL-28
[52] = system: K562
[53] = system: MDA-N
[54] = system: MCF7
[55] = system: SF-295
[56] = system: T47D
[57] = system: SF-539

Cc1cc2nc(N3C(=O)/C(=C/c4ccc(Oc5ccccc5)cc4)N=C3c3ccccc3)sc2cc1C
GI50 [1]: 26.7 µM (inactive) | GI50 [2]: 71.8 µM (inactive) | GI50 [3]: 58.1 µM (inactive) | GI50 [4]: 37.4 µM (inactive) | GI50 [5]: 59.3 µM (inactive) | GI50 [6]: 43 µM (inactive) | GI50 [7]: 50.8 µM (inactive) | GI50 [8]: 50.5 µM (inactive) | GI50 [9]: 28.2 µM (inactive) | GI50 [10]: 23.6 µM (inactive) | GI50 [11]: 23.3 µM (inactive) | GI50 [12]: 63.8 µM (inactive) | GI50 [13]: 40 µM (inactive) | GI50 [14]: 54.7 µM (inactive) | GI50 [15]: 19.5 µM (inactive) | GI50 [16]: 29.2 µM (inactive) | GI50 [17]: 51.8 µM (inactive) | GI50 [18]: 32.1 µM (inactive) | GI50 [19]: 50.7 µM (inactive) | GI50 [20]: 70.6 µM (inactive) | GI50 [21]: > 100 µM (inactive) | GI50 [22]: 30.2 µM (inactive) | GI50 [23]: > 100 µM (inactive) | GI50 [24]: 44.6 µM (inactive) | GI50 [25]: 40.6 µM (inactive) | GI50 [26]: 58.9 µM (inactive) | GI50 [27]: 64.6 µM (inactive) | GI50 [28]: 59.4 µM (inactive) | GI50 [29]: 42.6 µM (inactive) | GI50 [30]: 35.4 µM (inactive) | GI50 [31]: > 100 µM (inactive) | GI50 [32]: 24.6 µM (inactive) | GI50 [33]: 24.4 µM (inactive) | GI50 [34]: 31.6 µM (inactive) | GI50 [35]: > 100 µM (inactive) | GI50 [36]: 20.9 µM (inactive) | GI50 [37]: 95.5 µM (inactive) | GI50 [38]: > 100 µM (inactive) | GI50 [39]: 48.2 µM (inactive) | GI50 [40]: 29.4 µM | GI50 [41]: 52.2 µM (inactive) | GI50 [42]: > 100 µM (inactive) | GI50 [43]: 40 µM (inactive) | GI50 [44]: 45.7 µM (inactive) | GI50 [45]: > 100 µM (inactive) | GI50 [46]: 26.1 µM (inactive) | GI50 [47]: 30.8 µM (inactive) | GI50 [48]: 42.7 µM (inactive) | GI50 [49]: 26.2 µM (inactive) | GI50 [50]: 62.2 µM (inactive) | GI50 [51]: 69.7 µM (inactive) | GI50 [52]: 24.5 µM (inactive) | GI50 [53]: 25.2 µM (inactive) | GI50 [54]: 24.2 µM (inactive) | GI50 [55]: 33 µM (inactive) | GI50 [56]: 42.3 µM (inactive)

CCOP(=O)(OCC)[C@H]1OC(C)(C)O[C@@H]1CO
GI50 [1]: > 100 µM (inactive) | GI50 [2]: > 100 µM (inactive) | GI50 [3]: > 100 µM (inactive) | GI50 [4]: > 100 µM (inactive) | GI50 [5]: > 100 µM (inactive) | GI50 [6]: > 100 µM (inactive) | GI50 [7]: > 100 µM (inactive) | GI50 [8]: > 100 µM (inactive) | GI50 [9]: > 100 µM (inactive) | GI50 [10]: > 100 µM (inactive) | GI50 [11]: > 100 µM (inactive) | GI50 [12]: > 100 µM (inactive) | GI50 [13]: > 100 µM (inactive) | GI50 [14]: > 100 µM (inactive) | GI50 [15]: > 100 µM (inactive) | GI50 [16]: > 100 µM (inactive) | GI50 [17]: > 100 µM (inactive) | GI50 [18]: > 100 µM (inactive) | GI50 [20]: > 100 µM (inactive) | GI50 [21]: > 100 µM (inactive) | GI50 [22]: > 100 µM (inactive) | GI50 [23]: > 100 µM (inactive) | GI50 [24]: > 100 µM (inactive) | GI50 [25]: > 100 µM (inactive) | GI50 [27]: > 100 µM (inactive) | GI50 [57]: > 100 µM (inactive) | GI50 [28]: > 100 µM (inactive) | GI50 [29]: > 100 µM (inactive) | GI50 [30]: > 100 µM (inactive) | GI50 [31]: > 100 µM (inactive) | GI50 [32]: > 100 µM (inactive) | GI50 [33]: > 100 µM (inactive) | GI50 [34]: > 100 µM (inactive) | GI50 [35]: > 100 µM (inactive) | GI50 [36]: > 100 µM (inactive) | GI50 [37]: > 100 µM (inactive) | GI50 [38]: > 100 µM (inactive) | GI50 [39]: > 100 µM (inactive) | GI50 [40]: > 100 µM | GI50 [41]: > 100 µM (inactive) | GI50 [42]: > 100 µM (inactive) | GI50 [43]: > 100 µM (inactive) | GI50 [44]: > 100 µM (inactive) | GI50 [45]: > 100 µM (inactive) | GI50 [46]: > 100 µM (inactive) | GI50 [47]: > 100 µM (inactive) | GI50 [48]: > 100 µM (inactive) | GI50 [49]: > 100 µM (inactive) | GI50 [51]: > 100 µM (inactive) | GI50 [53]: > 100 µM (inactive) | GI50 [54]: > 100 µM (inactive) | GI50 [55]: > 100 µM (inactive) | GI50 [56]: > 100 µM (inactive)
